Experimental data reported in patent publication US20020137929A1, “1 - (3-heterocyclylphenyl) isothiourea, -isourea, -guanidine and -amidine herbicidal agents” (Intellectual Property Department, BASF Aktiengesellschaft, priority 1998, published 2002).

How the values were obtained:
[1] = system: IPOSS (Morningglory Spp.); assay: Preemergence herbicidal evaluation; assay type: in vivo, Ipomoea Spp.; conditions: rated 4-5 weeks after treatment
From the text: (§1) Results of herbicide evaluation are expressed on a rating scale (0-9). The scale is based upon a visual observation of plant stand, vigor, malformation, size, chlorosis and overall plant appearance as compared with a control.
The preemergence herbicidal activity of the test compounds of the present invention is exemplified by the following tests in which the seeds of a variety of monocotyledonous and dicotyledonous plants are separately mixed with potting soil and planted on top of approximately one inch of soil in separate pint cups. After planting, the cups are sprayed with the selected aqueous acetone solution containing test compound in sufficient quantity to provide the equivalent of about 0.0156 to 0.500 kg per hectare of test compound per cup. The treated cups are then placed on greenhouse benches, watered and cared for in accordance with conventional greenhouse procedures. From four to five weeks after treatment, the tests are terminated and each cup is examined and rated according to the rating system provided in Example 37.
The compounds evaluated are reported by compound number given in Example 37.

[2] = system: ECHCG (Barnyardgrass); assay: Preemergence herbicidal evaluation; assay type: in vivo, Echinochloa crus-galli; conditions: rated 4-5 weeks after treatment
How it was run: (§2)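 Steps: mix seeds into potting soil; plant atop ~1 inch soil; spray compound in aqueous acetone (~0.0156-0.500 kg/ha equivalent); maintain in greenhouse with watering; rate visually 0-9 versus control at 4-5 weeks.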

[3] = system: MOOVA (Monochoria); assay: Postemergence weed control under flooded paddy conditions; assay type: in vivo, Monochoria vaginalis; conditions: postemergence weeds, 3-4 weeks after treatment
How it was run: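 Injury ratings (0–9 scale covering stand, vigor, malformation, size, chlorosis and overall appearance versus control) were made three to four weeks after treatment. Test material, about 0.0313 to 0.500 kg/ha a.i. in 50/50 v/v aqueous/acetone, was added to flood water 1.5 to 3 cm deep over 3 to 5 cm weeds and 1.5 to 2.5 leaf rice.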

[4] = system: GLXMAW (Soybean, Williams); assay: Preemergence herbicidal evaluation; assay type: in vivo, Glycine max, (L.) Merr. cv Williams; conditions: rated 4-5 weeks after treatment
How it was run: as §2

[5] = system: CHEAL (Lambsquarters, Common); assay: Postemergence herbicidal evaluation; assay type: in vivo, Chenopodium album; conditions: postemergence
How it was run: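 Visual 0-9 injury score (stand, vigor, malformation, size, chlorosis, appearance vs untreated) taken four to five weeks post-spray, averaged across repeat tests. Test plants about two weeks old; foliar spray of acetone/water (1:1) with 0.5% surfactant delivering ~0.0156-0.500 kg active/ha.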

[6] = system: IPOSS (Morningglory Spp.); assay: Postemergence herbicidal evaluation; assay type: in vivo, Ipomoea Spp.
Procedure: In the tests, seedling plants are grown in jiffy flats for about two weeks. The test compounds are dispersed in 50/50 acetone/water mixtures containing 0.5% TWEEN®20, a polyoxyethylene sorbitan monolaurate surfactant of Atlas Chemical Industries, in sufficient quantities to provide the equivalent of about 0.0156 kg to 0.500 kg per hectare of active compound when applied to the plants through a spray nozzle operating at 40 psi for a predetermined time. After spraying, the plants are placed on greenhouse benches and are cared for in accordance with conventional greenhouse procedures. From four to five weeks after treatment, the seedling plants are examined and rated according to the rating system set forth below. Where more than one test is involved for a given compound, the data are averaged.
Plant species employed in these evaluations are reported by header abbreviation, common name and scientific name.
as §1

[7] = system: GALAP (Galium); assay: Preemergence herbicidal evaluation; assay type: in vivo, Galium aparine; conditions: rated 4-5 weeks after treatment
How it was run: as §2

CN1C(=O)CS/C1=N/c1cc(-n2c(=O)cc(C(F)(F)F)n(C)c2=O)c(F)cc1Cl [Compound 7]
IPOSS preemergence herbicidal rating ([1]; rate 0.0157 kg/ha): 9.0
IPOSS preemergence herbicidal rating ([1]; rate 0.0313 kg/ha): 9.0
IPOSS preemergence herbicidal rating ([1]; rate 0.0625 kg/ha): 9.0
IPOSS preemergence herbicidal rating ([1]; rate 0.1250 kg/ha): 9.0
IPOSS preemergence herbicidal rating ([1]; rate 0.2500 kg/ha): 9.0
ECHCG preemergence herbicidal rating ([2]; rate 0.0157 kg/ha): 5.0
ECHCG preemergence herbicidal rating ([2]; rate 0.0313 kg/ha): 9.0
ECHCG preemergence herbicidal rating ([2]; rate 0.0625 kg/ha): 9.0
ECHCG preemergence herbicidal rating ([2]; rate 0.1250 kg/ha): 9.0
ECHCG preemergence herbicidal rating ([2]; rate 0.2500 kg/ha): 9.0
Herbicidal rating MOOVA ([3]; rate 0.0313 kg/ha): 9.0
Herbicidal rating MOOVA ([3]; rate 0.0625 kg/ha): 9.0
Herbicidal rating MOOVA ([3]; rate 0.1250 kg/ha): 9.0
Herbicidal rating MOOVA ([3]; rate 0.2500 kg/ha): 9.0
GLXMAW preemergence herbicidal rating ([4]; rate 0.0157 kg/ha): 5.0
GLXMAW preemergence herbicidal rating ([4]; rate 0.0313 kg/ha): 6.5
GLXMAW preemergence herbicidal rating ([4]; rate 0.0625 kg/ha): 7.5
GLXMAW preemergence herbicidal rating ([4]; rate 0.1250 kg/ha): 8.0
GLXMAW preemergence herbicidal rating ([4]; rate 0.2500 kg/ha): 8.5
CHEAL herbicidal rating ([5]; rate 0.0157 kg/ha): 0.0
CHEAL herbicidal rating ([5]; rate 0.0313 kg/ha): 5.0
CHEAL herbicidal rating ([5]; rate 0.0625 kg/ha): 6.0
CHEAL herbicidal rating ([5]; rate 0.1250 kg/ha): 9.0
IPOSS herbicidal rating ([6]; rate 0.0157 kg/ha): 6.0
IPOSS herbicidal rating ([6]; rate 0.0313 kg/ha): 7.0
IPOSS herbicidal rating ([6]; rate 0.0625 kg/ha): 9.0
GALAP preemergence herbicidal rating ([7]; rate 0.0157 kg/ha): 4.0
GALAP preemergence herbicidal rating ([7]; rate 0.0313 kg/ha): 7.5
GALAP preemergence herbicidal rating ([7]; rate 0.0625 kg/ha): 9.0
GALAP preemergence herbicidal rating ([7]; rate 0.1250 kg/ha): 9.0
GALAP preemergence herbicidal rating ([7]; rate 0.2500 kg/ha): 9.0

C=CCN1C(=O)CSC1=Nc1cc(N2C(=O)C3=C(CCCC3)C2=O)c(F)cc1Cl [Compound 2, N-{5-[(3-allyl-4-oxo-2-thiazolidinylidene)amino]-4-chloro-2-fluorophenyl}-1-cyclohexene-1,2-dicarboximide]
IPOSS preemergence herbicidal rating ([1]; rate 0.0313 kg/ha): 0.0
IPOSS preemergence herbicidal rating ([1]; rate 0.0625 kg/ha): 0.0
IPOSS preemergence herbicidal rating ([1]; rate 0.1250 kg/ha): 0.0
IPOSS preemergence herbicidal rating ([1]; rate 0.2500 kg/ha): 0.0
IPOSS preemergence herbicidal rating ([1]; rate 0.5000 kg/ha): 0.0
ECHCG preemergence herbicidal rating ([2]; rate 0.0313 kg/ha): 0.0
ECHCG preemergence herbicidal rating ([2]; rate 0.0625 kg/ha): 0.0
ECHCG preemergence herbicidal rating ([2]; rate 0.1250 kg/ha): 4.0
ECHCG preemergence herbicidal rating ([2]; rate 0.2500 kg/ha): 0.0
ECHCG preemergence herbicidal rating ([2]; rate 0.5000 kg/ha): 8.0
Herbicidal rating MOOVA ([3]; rate 0.0313 kg/ha): 2.0
Herbicidal rating MOOVA ([3]; rate 0.0625 kg/ha): 4.5
Herbicidal rating MOOVA ([3]; rate 0.1250 kg/ha): 5.5
Herbicidal rating MOOVA ([3]; rate 0.2500 kg/ha): 9.0
Herbicidal rating MOOVA ([3]; rate 0.5000 kg/ha): 9.0
GLXMAW preemergence herbicidal rating ([4]; rate 0.0313 kg/ha): 0.0
GLXMAW preemergence herbicidal rating ([4]; rate 0.0625 kg/ha): 0.0
GLXMAW preemergence herbicidal rating ([4]; rate 0.1250 kg/ha): 0.0
GLXMAW preemergence herbicidal rating ([4]; rate 0.2500 kg/ha): 0.0
GLXMAW preemergence herbicidal rating ([4]; rate 0.5000 kg/ha): 1.0
CHEAL herbicidal rating ([5]; rate 0.0157 kg/ha): 7.0
CHEAL herbicidal rating ([5]; rate 0.0313 kg/ha): 6.0
CHEAL herbicidal rating ([5]; rate 0.0625 kg/ha): 8.0
CHEAL herbicidal rating ([5]; rate 0.1250 kg/ha): 9.0
CHEAL herbicidal rating ([5]; rate 0.2500 kg/ha): 7.0
CHEAL herbicidal rating ([5]; rate 0.5000 kg/ha): 9.0
IPOSS herbicidal rating ([6]; rate 0.0157 kg/ha): 4.0
IPOSS herbicidal rating ([6]; rate 0.0313 kg/ha): 4.0
IPOSS herbicidal rating ([6]; rate 0.0625 kg/ha): 4.0
IPOSS herbicidal rating ([6]; rate 0.1250 kg/ha): 6.0
IPOSS herbicidal rating ([6]; rate 0.2500 kg/ha): 9.0
IPOSS herbicidal rating ([6]; rate 0.5000 kg/ha): 9.0
